Experimental data reported in the kinase profiling compilation of Christmann-Franck et al. (2016).
One block for each compound: values may come before it.

How the values were obtained:
Experiment in all cases: radiometric filter-binding kinase assay, Kinase HotSpot
Details in all cases: compound 0.5 µM; ATP 10 µM
CAMK2A (human) = CAMK2A (human) (UniProt Q9UQM7)
CDC42BPA (human) = CDC42BPA (human) (UniProt Q5VT25)
DMPK (human) = DMPK (human) (UniProt Q09013)
GSG2 (human) = GSG2 (human) (UniProt Q8TF76)
TNK2 (human) = TNK2 (human) (UniProt Q07912)
FGFR1 (human) = FGFR1 (human) (UniProt P11362)
MYO3B (human) = MYO3B (human) (UniProt Q8WXR4)
ABL2 (human) = ABL2 (human) (UniProt P42684)
MAPK10 (human) = MAPK10 (human) (UniProt P53779)
NTRK1 (human) = NTRK1 (human) (UniProt P04629)
EPHA8 (human) = EPHA8 (human) (UniProt P29322)
MAPK9 (human) = MAPK9 (human) (UniProt P45984)
MAP2K1 (human) = MAP2K1 (human) (UniProt Q02750)
CDK4 CCND1 (human) = CDK4 CCND1 (human) (UniProt P24385+P11802)
DYRK1B (human) = DYRK1B (human) (UniProt Q9Y463)
CDC42BPB (human) = CDC42BPB (human) (UniProt Q9Y5S2)
TLK2 (human) = TLK2 (human) (UniProt Q86UE8)
PRKD1 (human) = PRKD1 (human) (UniProt Q15139)
FGFR2 (human) = FGFR2 (human) (UniProt P21802)
RPS6KB2 (human) = RPS6KB2 (human) (UniProt Q9UBS0)
Sequence of RPS6KB2 (human) (Q9UBS0 whole entry, looked up): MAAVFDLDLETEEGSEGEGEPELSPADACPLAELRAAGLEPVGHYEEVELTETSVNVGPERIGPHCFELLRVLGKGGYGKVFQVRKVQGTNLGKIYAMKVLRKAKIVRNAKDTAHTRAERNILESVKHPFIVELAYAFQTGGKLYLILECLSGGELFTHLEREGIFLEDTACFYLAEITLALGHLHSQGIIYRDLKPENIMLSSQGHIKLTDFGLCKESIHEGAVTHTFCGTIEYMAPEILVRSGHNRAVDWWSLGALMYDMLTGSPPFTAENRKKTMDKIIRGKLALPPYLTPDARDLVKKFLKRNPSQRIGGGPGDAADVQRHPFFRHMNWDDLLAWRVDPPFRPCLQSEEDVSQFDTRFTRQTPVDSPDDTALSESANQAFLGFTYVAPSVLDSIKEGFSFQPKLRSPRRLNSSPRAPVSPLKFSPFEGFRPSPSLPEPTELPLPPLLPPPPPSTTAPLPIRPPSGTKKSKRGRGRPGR

OXSR1 (human) = OXSR1 (human) (UniProt O95747)
NEK2 (human) = NEK2 (human) (UniProt P51955)
EPHB2 (human) = EPHB2 (human) (UniProt P29323)
Sequence of EPHB2 (human) (P29323 whole entry, looked up): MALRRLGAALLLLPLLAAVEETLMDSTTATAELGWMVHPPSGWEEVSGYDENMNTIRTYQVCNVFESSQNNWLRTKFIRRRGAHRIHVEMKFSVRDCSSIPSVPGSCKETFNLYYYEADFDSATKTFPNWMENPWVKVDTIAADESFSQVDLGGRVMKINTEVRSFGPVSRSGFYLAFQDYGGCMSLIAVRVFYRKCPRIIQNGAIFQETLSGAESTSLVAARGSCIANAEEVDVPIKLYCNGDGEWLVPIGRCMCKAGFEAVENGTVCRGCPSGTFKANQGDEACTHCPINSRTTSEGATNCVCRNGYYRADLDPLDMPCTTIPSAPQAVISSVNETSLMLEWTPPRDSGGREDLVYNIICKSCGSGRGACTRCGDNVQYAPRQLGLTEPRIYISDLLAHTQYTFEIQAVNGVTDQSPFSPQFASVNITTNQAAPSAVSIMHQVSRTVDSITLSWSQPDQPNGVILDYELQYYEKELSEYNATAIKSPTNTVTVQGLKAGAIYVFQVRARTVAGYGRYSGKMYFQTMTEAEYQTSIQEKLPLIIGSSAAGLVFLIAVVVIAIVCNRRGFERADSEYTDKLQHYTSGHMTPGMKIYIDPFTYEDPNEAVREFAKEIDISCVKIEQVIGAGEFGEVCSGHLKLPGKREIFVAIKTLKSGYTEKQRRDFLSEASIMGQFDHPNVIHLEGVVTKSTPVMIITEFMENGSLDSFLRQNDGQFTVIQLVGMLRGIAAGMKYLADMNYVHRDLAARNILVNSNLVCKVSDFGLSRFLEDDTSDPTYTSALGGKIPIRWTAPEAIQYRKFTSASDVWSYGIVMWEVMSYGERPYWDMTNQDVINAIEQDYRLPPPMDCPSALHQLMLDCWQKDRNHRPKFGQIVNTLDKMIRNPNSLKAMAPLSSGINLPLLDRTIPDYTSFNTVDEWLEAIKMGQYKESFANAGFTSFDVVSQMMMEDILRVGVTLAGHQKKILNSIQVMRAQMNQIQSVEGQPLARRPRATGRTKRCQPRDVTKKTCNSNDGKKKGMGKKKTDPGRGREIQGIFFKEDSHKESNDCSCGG

GRK4 (human) = GRK4 (human) (UniProt P32298)
FGR (human) = FGR (human) (UniProt P09769)
Sequence of FGR (human) (P09769 whole entry, looked up): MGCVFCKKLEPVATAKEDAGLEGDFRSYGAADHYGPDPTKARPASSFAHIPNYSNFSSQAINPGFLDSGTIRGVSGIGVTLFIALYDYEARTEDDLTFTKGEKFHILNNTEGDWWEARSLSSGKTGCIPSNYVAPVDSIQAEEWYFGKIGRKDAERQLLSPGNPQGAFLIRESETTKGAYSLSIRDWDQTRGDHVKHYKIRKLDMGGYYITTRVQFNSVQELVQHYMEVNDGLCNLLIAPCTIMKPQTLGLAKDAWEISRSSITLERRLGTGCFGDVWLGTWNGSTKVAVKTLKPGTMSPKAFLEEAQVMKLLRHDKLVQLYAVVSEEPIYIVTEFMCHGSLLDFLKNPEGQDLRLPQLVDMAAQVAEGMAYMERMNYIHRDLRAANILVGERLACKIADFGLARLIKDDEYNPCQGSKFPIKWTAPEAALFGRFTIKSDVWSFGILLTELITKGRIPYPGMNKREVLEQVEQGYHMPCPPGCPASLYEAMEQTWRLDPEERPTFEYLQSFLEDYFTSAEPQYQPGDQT

BTK (human) = BTK (human) (UniProt Q06187)
Sequence of BTK (human) (Q06187 whole entry, looked up): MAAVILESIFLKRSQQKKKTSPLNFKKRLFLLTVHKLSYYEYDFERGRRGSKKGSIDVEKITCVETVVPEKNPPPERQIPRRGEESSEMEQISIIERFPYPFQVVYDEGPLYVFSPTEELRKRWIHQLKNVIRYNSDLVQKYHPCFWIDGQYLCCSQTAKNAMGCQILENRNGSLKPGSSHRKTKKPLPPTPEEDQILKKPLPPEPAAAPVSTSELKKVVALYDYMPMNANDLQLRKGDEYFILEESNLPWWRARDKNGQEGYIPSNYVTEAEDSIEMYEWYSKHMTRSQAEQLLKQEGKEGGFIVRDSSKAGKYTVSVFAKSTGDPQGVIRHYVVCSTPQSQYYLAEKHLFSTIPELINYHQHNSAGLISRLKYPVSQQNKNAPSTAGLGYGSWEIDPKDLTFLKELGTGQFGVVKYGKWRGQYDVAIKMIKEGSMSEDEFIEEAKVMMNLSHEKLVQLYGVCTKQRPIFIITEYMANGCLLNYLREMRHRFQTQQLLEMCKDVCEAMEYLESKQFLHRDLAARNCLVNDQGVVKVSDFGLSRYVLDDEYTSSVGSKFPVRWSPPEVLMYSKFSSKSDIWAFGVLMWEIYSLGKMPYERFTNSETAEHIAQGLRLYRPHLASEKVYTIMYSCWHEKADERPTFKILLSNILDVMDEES

PAK7 (human) = PAK7 (human) (UniProt Q9P286)
AURKA (human) = AURKA (human) (UniProt O14965)
RPS6KA4 KD2 (human) = RPS6KA4 KD2 (human) (UniProt O75676)
JAK3 JH1 JH2 (human) = JAK3 JH1 JH2 (human) (UniProt P52333)
Sequence of JAK3 JH1 JH2 (human) (P52333 whole entry, looked up): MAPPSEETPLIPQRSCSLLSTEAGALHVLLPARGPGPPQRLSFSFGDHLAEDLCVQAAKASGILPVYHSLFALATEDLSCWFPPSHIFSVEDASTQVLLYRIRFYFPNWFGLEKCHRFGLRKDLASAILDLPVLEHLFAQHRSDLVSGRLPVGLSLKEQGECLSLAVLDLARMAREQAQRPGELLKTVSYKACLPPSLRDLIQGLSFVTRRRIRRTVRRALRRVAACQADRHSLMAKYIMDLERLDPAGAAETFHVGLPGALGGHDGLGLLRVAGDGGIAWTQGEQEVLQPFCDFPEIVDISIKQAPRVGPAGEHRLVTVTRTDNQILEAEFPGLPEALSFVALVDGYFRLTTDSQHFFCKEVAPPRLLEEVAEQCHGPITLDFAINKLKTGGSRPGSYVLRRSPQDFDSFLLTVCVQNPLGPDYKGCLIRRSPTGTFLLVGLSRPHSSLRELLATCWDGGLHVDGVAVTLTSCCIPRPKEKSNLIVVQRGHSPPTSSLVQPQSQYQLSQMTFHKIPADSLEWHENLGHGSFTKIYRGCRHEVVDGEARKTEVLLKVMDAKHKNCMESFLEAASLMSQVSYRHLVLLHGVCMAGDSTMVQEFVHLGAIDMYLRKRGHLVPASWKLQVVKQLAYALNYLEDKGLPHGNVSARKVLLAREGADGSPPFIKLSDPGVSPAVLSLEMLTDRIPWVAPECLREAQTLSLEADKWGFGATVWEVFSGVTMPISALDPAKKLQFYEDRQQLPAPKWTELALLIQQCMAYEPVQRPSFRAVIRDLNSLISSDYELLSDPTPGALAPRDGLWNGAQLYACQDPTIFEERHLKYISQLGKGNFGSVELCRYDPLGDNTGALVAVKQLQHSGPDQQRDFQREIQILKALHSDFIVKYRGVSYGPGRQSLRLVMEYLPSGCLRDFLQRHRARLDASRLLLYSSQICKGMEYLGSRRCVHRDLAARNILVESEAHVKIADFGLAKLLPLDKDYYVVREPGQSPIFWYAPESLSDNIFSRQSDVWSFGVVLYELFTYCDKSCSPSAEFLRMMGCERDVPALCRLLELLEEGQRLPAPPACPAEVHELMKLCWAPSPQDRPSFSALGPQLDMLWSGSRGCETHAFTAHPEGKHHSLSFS

TAOK2 (human) = TAOK2 (human) (UniProt Q9UL54)
AKT1 (human) = AKT1 (human) (UniProt P31749)
Sequence of AKT1 (human) (P31749 whole entry, looked up): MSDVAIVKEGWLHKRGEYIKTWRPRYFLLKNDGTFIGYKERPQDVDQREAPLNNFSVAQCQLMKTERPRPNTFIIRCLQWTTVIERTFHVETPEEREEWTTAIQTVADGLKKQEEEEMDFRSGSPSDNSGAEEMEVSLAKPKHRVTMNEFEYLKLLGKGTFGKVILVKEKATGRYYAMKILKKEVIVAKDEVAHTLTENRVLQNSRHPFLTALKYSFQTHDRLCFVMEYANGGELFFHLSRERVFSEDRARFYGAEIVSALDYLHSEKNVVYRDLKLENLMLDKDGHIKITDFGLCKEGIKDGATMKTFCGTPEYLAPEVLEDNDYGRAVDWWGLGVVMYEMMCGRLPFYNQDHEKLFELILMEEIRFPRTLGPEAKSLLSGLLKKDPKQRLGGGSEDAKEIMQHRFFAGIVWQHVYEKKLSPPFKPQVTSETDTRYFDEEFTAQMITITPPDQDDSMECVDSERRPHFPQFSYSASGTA

WEE1 (human) = WEE1 (human) (UniProt P30291)
[1] = target: JAK1 JH1 catalytic (human) (UniProt P23458)
PRKCD (human) = PRKCD (human) (UniProt Q05655)
IRAK1 (human) = IRAK1 (human) (UniProt P51617)
PLK2 (human) = PLK2 (human) (UniProt Q9NYY3)
Sequence of PLK2 (human) (Q9NYY3 whole entry, looked up): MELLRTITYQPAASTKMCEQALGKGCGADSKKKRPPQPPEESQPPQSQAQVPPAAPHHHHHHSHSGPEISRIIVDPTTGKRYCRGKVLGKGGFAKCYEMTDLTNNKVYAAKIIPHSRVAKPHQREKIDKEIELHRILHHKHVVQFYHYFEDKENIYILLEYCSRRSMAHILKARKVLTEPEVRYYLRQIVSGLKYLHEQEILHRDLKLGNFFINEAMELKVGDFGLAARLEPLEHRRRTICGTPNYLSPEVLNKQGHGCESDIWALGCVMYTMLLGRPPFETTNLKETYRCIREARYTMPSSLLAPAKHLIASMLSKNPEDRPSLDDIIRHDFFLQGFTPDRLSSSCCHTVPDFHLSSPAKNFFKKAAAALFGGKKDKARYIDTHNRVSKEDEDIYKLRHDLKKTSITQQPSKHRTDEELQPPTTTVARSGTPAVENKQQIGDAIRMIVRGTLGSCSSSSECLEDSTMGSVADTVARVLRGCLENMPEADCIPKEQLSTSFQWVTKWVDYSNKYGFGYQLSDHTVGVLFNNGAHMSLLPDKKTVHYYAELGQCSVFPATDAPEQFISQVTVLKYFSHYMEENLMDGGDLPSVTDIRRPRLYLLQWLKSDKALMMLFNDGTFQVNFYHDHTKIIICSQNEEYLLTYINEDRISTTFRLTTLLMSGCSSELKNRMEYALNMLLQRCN

ALK (human) = ALK (human) (UniProt Q9UM73)
RPS6KA1 KD1 KD2 (human) = RPS6KA1 KD1 KD2 (human) (UniProt Q15418)
SIK2 (human) = SIK2 (human) (UniProt Q9H0K1)
SRPK3 (human) = SRPK3 (human) (UniProt Q9UPE1)
CDK5 CDK5R1 p35 (human) = CDK5 CDK5R1 p35 (human) (UniProt Q00535+Q15078)

residual activity (CAMK2A (human)): 113% | residual activity (CDC42BPA (human)): 105% | residual activity (DMPK (human)): 136% | residual activity (GSG2 (human)): 94.6% | residual activity (TNK2 (human)): 2.7% | residual activity (FGFR1 (human)): 77.4% | residual activity (MYO3B (human)): 103% | residual activity (ABL2 (human)): 84.8% | residual activity (MAPK10 (human)): 87.4% | residual activity (NTRK1 (human)): 94.3% | residual activity (EPHA8 (human)): 95.2% | residual activity (MAPK9 (human)): 100% | residual activity (MAP2K1 (human)): 93% | residual activity (CDK4 CCND1 (human)): 121% | residual activity (DYRK1B (human)): 92.2% | residual activity (CDC42BPB (human)): 107% | residual activity (TLK2 (human)): 112% | residual activity (PRKD1 (human)): 96.2% | residual activity (FGFR2 (human)): 78% | residual activity (RPS6KB2 (human)): 107% | residual activity (OXSR1 (human)): 93.5% | residual activity (NEK2 (human)): 88.5% | residual activity (EPHB2 (human)): 90.5% | residual activity (GRK4 (human)): 103% | residual activity (FGR (human)): 2.93% | residual activity (BTK (human)): 4.56% | residual activity (PAK7 (human)): 102% | residual activity (AURKA (human)): 76.5% | residual activity (RPS6KA4 KD2 (human)): 105% | residual activity (JAK3 JH1 JH2 (human)): 105% | residual activity (TAOK2 (human)): 104% | residual activity (AKT1 (human)): 103% | residual activity (WEE1 (human)): 77.8% | residual activity [1]: 111% | residual activity (PRKCD (human)): 99.6% | residual activity (IRAK1 (human)): 110% | residual activity (PLK2 (human)): 92.5% | residual activity (ALK (human)): 80.6% | residual activity (RPS6KA1 KD1 KD2 (human)): 94.2% | residual activity (SIK2 (human)): 101% | residual activity (SRPK3 (human)): 95.7%
SMILES: Nc1ncnc2c1c(-c1ccc(Oc3ccccc3)cc1)cn2C1CCCC1

SMILES: CC(=O)c1ccc(N2CCOCC2)cc1O
residual activity (CAMK2A (human)): 104% | residual activity (CDC42BPA (human)): 100% | residual activity (DMPK (human)): 105% | residual activity (GSG2 (human)): 79.6% | residual activity (TNK2 (human)): 101% | residual activity (FGFR1 (human)): 91.4% | residual activity (ABL2 (human)): 104% | residual activity (MAPK10 (human)): 78.4% | residual activity (NTRK1 (human)): 97.2% | residual activity (EPHA8 (human)): 101% | residual activity (MAPK9 (human)): 105% | residual activity (MAP2K1 (human)): 95.2% | residual activity (CDK4 CCND1 (human)): 94.4% | residual activity (DYRK1B (human)): 99.9% | residual activity (CDC42BPB (human)): 87.2% | residual activity (PRKD1 (human)): 102% | residual activity (FGFR2 (human)): 108% | residual activity (RPS6KB2 (human)): 101% | residual activity (OXSR1 (human)): 115% | residual activity (NEK2 (human)): 81.3% | residual activity (EPHB2 (human)): 82.5% | residual activity (GRK4 (human)): 106% | residual activity (FGR (human)): 95.6% | residual activity (BTK (human)): 108% | residual activity (PAK7 (human)): 102% | residual activity (AURKA (human)): 132% | residual activity (RPS6KA4 KD2 (human)): 103% | residual activity (JAK3 JH1 JH2 (human)): 104% | residual activity (CDK5 CDK5R1 p35 (human)): 97.1% | residual activity (TAOK2 (human)): 107% | residual activity (AKT1 (human)): 103% | residual activity (WEE1 (human)): 97.5% | residual activity [1]: 104% | residual activity (PRKCD (human)): 97.4% | residual activity (IRAK1 (human)): 111% | residual activity (PLK2 (human)): 104% | residual activity (ALK (human)): 106% | residual activity (RPS6KA1 KD1 KD2 (human)): 92.4% | residual activity (SIK2 (human)): 87% | residual activity (SRPK3 (human)): 104%

SMILES: CCN(CC)C(=O)c1ccc(Nc2nc(OCC3CCCCC3)c3nc[nH]c3n2)cc1
residual activity (CAMK2A (human)): 105% | residual activity (CDC42BPA (human)): 90.7% | residual activity (DMPK (human)): 105% | residual activity (GSG2 (human)): 94.1% | residual activity (TNK2 (human)): 21.4% | residual activity (FGFR1 (human)): 72.8% | residual activity (ABL2 (human)): 67.8% | residual activity (MAPK10 (human)): 108% | residual activity (NTRK1 (human)): 81.4% | residual activity (EPHA8 (human)): 92.1% | residual activity (MAPK9 (human)): 60.8% | residual activity (MAP2K1 (human)): 94.1% | residual activity (CDK4 CCND1 (human)): 82% | residual activity (DYRK1B (human)): 90.2% | residual activity (CDC42BPB (human)): 99.3% | residual activity (PRKD1 (human)): 62.6% | residual activity (FGFR2 (human)): 76.6% | residual activity (RPS6KB2 (human)): 102% | residual activity (OXSR1 (human)): 99% | residual activity (NEK2 (human)): 91.4% | residual activity (EPHB2 (human)): 93.7% | residual activity (GRK4 (human)): 93% | residual activity (FGR (human)): 54.2% | residual activity (BTK (human)): 37.1% | residual activity (PAK7 (human)): 49.1% | residual activity (AURKA (human)): 3.03% | residual activity (RPS6KA4 KD2 (human)): 79.8% | residual activity (JAK3 JH1 JH2 (human)): 6.39% | residual activity (CDK5 CDK5R1 p35 (human)): 77.1% | residual activity (TAOK2 (human)): 66% | residual activity (AKT1 (human)): 98.8% | residual activity (WEE1 (human)): 110% | residual activity [1]: 51.8% | residual activity (PRKCD (human)): 76.7% | residual activity (IRAK1 (human)): 93.8% | residual activity (PLK2 (human)): 98.2% | residual activity (ALK (human)): 74.9% | residual activity (RPS6KA1 KD1 KD2 (human)): 57.1% | residual activity (SIK2 (human)): 75.3% | residual activity (SRPK3 (human)): 68.1%

SMILES: CCN(CC)CCNC(=O)c1c(C)[nH]c(/C=C2\C(=O)Nc3ccc(F)cc32)c1C
residual activity (CAMK2A (human)): 14.5% | residual activity (CDC42BPA (human)): 89.5% | residual activity (DMPK (human)): 97.7% | residual activity (GSG2 (human)): 53.2% | residual activity (TNK2 (human)): 64.1% | residual activity (FGFR1 (human)): 66.1% | residual activity (MYO3B (human)): 54.5% | residual activity (ABL2 (human)): 61.8% | residual activity (MAPK10 (human)): 99.5% | residual activity (NTRK1 (human)): 11.5% | residual activity (EPHA8 (human)): 92.1% | residual activity (MAPK9 (human)): 96.7% | residual activity (MAP2K1 (human)): 67.8% | residual activity (CDK4 CCND1 (human)): 81% | residual activity (DYRK1B (human)): 60% | residual activity (CDC42BPB (human)): 101% | residual activity (TLK2 (human)): 63.3% | residual activity (PRKD1 (human)): 20% | residual activity (FGFR2 (human)): 50.5% | residual activity (RPS6KB2 (human)): 113% | residual activity (OXSR1 (human)): 105% | residual activity (NEK2 (human)): 106% | residual activity (EPHB2 (human)): 72.1% | residual activity (GRK4 (human)): 75.8% | residual activity (FGR (human)): 16.4% | residual activity (BTK (human)): 50.2% | residual activity (PAK7 (human)): 81.6% | residual activity (AURKA (human)): 59.7% | residual activity (RPS6KA4 KD2 (human)): 50.8% | residual activity (JAK3 JH1 JH2 (human)): 80.7% | residual activity (TAOK2 (human)): 90.3% | residual activity (AKT1 (human)): 105% | residual activity (WEE1 (human)): 91.8% | residual activity [1]: 71.9% | residual activity (PRKCD (human)): 95.1% | residual activity (IRAK1 (human)): 31.4% | residual activity (PLK2 (human)): 99.2% | residual activity (ALK (human)): 16.6% | residual activity (RPS6KA1 KD1 KD2 (human)): 28% | residual activity (SIK2 (human)): 27.8% | residual activity (SRPK3 (human)): 102%

SMILES: CC#CC(=O)Nc1cc2c(Nc3ccc(F)c(Cl)c3)ncnc2cn1
residual activity (CAMK2A (human)): 108% | residual activity (CDC42BPA (human)): 93.1% | residual activity (DMPK (human)): 104% | residual activity (GSG2 (human)): 101% | residual activity (TNK2 (human)): 95.1% | residual activity (FGFR1 (human)): 91.1% | residual activity (ABL2 (human)): 89.4% | residual activity (MAPK10 (human)): 85.4% | residual activity (NTRK1 (human)): 98.5% | residual activity (EPHA8 (human)): 100% | residual activity (MAPK9 (human)): 91.8% | residual activity (MAP2K1 (human)): 95.3% | residual activity (CDK4 CCND1 (human)): 98.6% | residual activity (DYRK1B (human)): 103% | residual activity (CDC42BPB (human)): 96.4% | residual activity (PRKD1 (human)): 98.7% | residual activity (FGFR2 (human)): 101% | residual activity (RPS6KB2 (human)): 97.2% | residual activity (OXSR1 (human)): 109% | residual activity (NEK2 (human)): 103% | residual activity (EPHB2 (human)): 80.9% | residual activity (GRK4 (human)): 104% | residual activity (FGR (human)): 89.6% | residual activity (BTK (human)): 2.88% | residual activity (PAK7 (human)): 102% | residual activity (AURKA (human)): 96.5% | residual activity (RPS6KA4 KD2 (human)): 100% | residual activity (JAK3 JH1 JH2 (human)): -0.181% | residual activity (CDK5 CDK5R1 p35 (human)): 97.9% | residual activity (TAOK2 (human)): 106% | residual activity (AKT1 (human)): 98.1% | residual activity (WEE1 (human)): 93.2% | residual activity [1]: 104% | residual activity (PRKCD (human)): 99.8% | residual activity (IRAK1 (human)): 104% | residual activity (PLK2 (human)): 103% | residual activity (ALK (human)): 103% | residual activity (RPS6KA1 KD1 KD2 (human)): 95.1% | residual activity (SIK2 (human)): 81.3% | residual activity (SRPK3 (human)): 101%
